Assay results reported in paper PMC9454848, “BMS-986158, a Small Molecule Inhibitor of the Bromodomain and Extraterminal Domain Proteins, in Patients with Selected Advanced Solid Tumors: Results from a Phase 1/2a Trial” (Cancers, 2022).
Where “and” joins values, the source holds several entries; their conditions need not be identical. Equal values may be shown once. Entries after “also recorded” stand apart in the source; their conditions may differ. Marks after values point to notes of the source that are not given here.

Key:
advanced solid tumors = experiment: Preliminary antitumor activity (RECIST 1.1 best overall response, ORR, PFS, OS); assay type: in vivo, human
Procedure: Best overall response was defined as a complete response (CR), partial response (PR), stable disease (SD), or progressive disease per RECIST 1.1 (solid tumors). […] Patients who had SD or better as their best overall response were classified as having achieved clinical benefit. These criteria must have been met at 1 time point and ≥1 subsequent time point(s) (the first of which was within 28 days of the initial time point). PFS was determined as the time from the first dose of study medication to the date of the first objective documentation of tumor progression or death due to any cause. All treated patients who received ≥1 dose of BMS-986158 were evaluated in the safety population. […] All treated patients with available and sufficient serum or plasma samples for the corresponding analytes were included in the PK analyses. […] ECG parameters were evaluated in a categorical analysis, and linear mixed-effects regression modeling was used to describe the quantitative relationship between ΔQTcF and time-matched serum concentrations of BMS-986158 or its metabolite at a single dose. Descriptive summary statistics, including means and 95% CIs, were calculated using the Clopper-Pearson method for ORR and Kaplan–Meier method for PFS and OS. During dose escalation, an mTPI design targeted a 27% DLT rate to guide escalation decisions and the MTD selection. In the dose-escalation segment, the target enrollment was up to 30 patients per schedule and 3–13 DLT-evaluable patients at a dose level, with an aim to determine the MTD. The totality of the data, including PK, pharmacodynamics, and patient overall safety, including at lower dose levels, was also used to select the RP2D.

CCR2 mRNA = experiment: Change from baseline in gene expression, CCR2; assay type: in vivo, human; conditions: patients; single dose up to 4.5 mg and schedule A
Procedure: Summary changes from baseline in the expression of BET-regulated genes were assessed in tumor tissues and blood collected at baseline and multiple on-treatment time points after BMS-986158 administration following the 3 dosing schedules. The study also assessed summary percent changes from baseline in expression of BET-regulated genes in peripheral blood and tumors (such as HEXIM1 and C-MYC). Tissue and peripheral blood samples (at baseline and on treatment) were collected for genomic, transcriptomic, and epigenetic analyses (by DNA or mRNA) to assess pharmacodynamic changes in BET-regulated genes. These samples were analyzed using whole-exome sequencing, real-time quantitative polymerase chain reaction, and RNA-sequencing methods.
All treated patients with available biomarker measurements at baseline and ≥1 time point were included in the biomarker analyses. Blood and tumor tissue samples were collected at baseline, during treatment, and at end of treatment for biomarker analysis. Markers of selected BET-regulated genes (e.g., HEXIM1) were analyzed with summary statistics for percent changes in expression from available matched pre- and on-treatment samples over time relative to baseline. Statistically significant changes in gene expression were determined using the Benjamini–Hochberg procedure to calculate an adjusted p value with an α level of 0.05.

[1] = test system: patient-derived xenograft models; design: method as in PMID 34543572; conditions: mouse, low doses; 9 of 19 models; cited from earlier work
[2] = Schedule A (5 days on, 2 days off), n = 46
[3] = Schedule B (14 days on, 7 days off), n = 8
[4] = Schedule C (7 days on, 14 days off), n = 29

## Cc1nnn(C)c1-c1cnc2c3ccc(C(C)(C)O)cc3n([C@H](c3ccccc3)C3CCOCC3)c2c1 [BMS-986158]
Advanced solid tumors; 4.5-mg dose on schedule A (9/14)
  Patients with clinical benefit: 64%
Advanced solid tumors; 6 months, Schedule A
  OS rate: 52.6%
Advanced solid tumors; 6 months, Schedule C
  OS rate: 48.4%
Advanced solid tumors; 6 months, Schedule A (5 days on, 2 days off), n = 46
  OS rate, n (95% CI): 52.6%
Advanced solid tumors; 6 months, Schedule C (7 days on, 14 days off), n = 29
  OS rate, n (95% CI): 48.4%
Advanced solid tumors; 12 months, Schedule A
  OS rate: 34.3%
Advanced solid tumors; 12 months, Schedule C
  OS rate: 30.8%
Advanced solid tumors; 12 months, Schedule A (5 days on, 2 days off), n = 46
  OS rate, n (95% CI): 34.3%
Advanced solid tumors; 12 months, Schedule C (7 days on, 14 days off), n = 29
  OS rate, n (95% CI): 30.8%
Advanced solid tumors; 24 weeks
  PFS rate, range depending on treatment schedule: 13.5–42.9%
Advanced solid tumors; 24 weeks, Schedule A (5 days on, 2 days off), n = 46
  PFS rate, n (95% CI): 18.1%
Advanced solid tumors; 24 weeks, Schedule B (14 days on, 7 days off), n = 8
  PFS rate, n (95% CI): 42.9%
Advanced solid tumors; 24 weeks, Schedule C (7 days on, 14 days off), n = 29
  PFS rate, n (95% CI): 13.5%
Advanced solid tumors; 48 weeks
  PFS rate, range depending on treatment schedule: 6.8–14.3%
Advanced solid tumors; 48 weeks, Schedule A (5 days on, 2 days off), n = 46
  PFS rate, n (95% CI): 10.3%
Advanced solid tumors; 48 weeks, Schedule B (14 days on, 7 days off), n = 8
  PFS rate, n (95% CI): 14.3%
Advanced solid tumors; 48 weeks, Schedule C (7 days on, 14 days off), n = 29
  PFS rate, n (95% CI): 6.8%
Advanced solid tumors; NUT carcinoma (4/7)
  Patients with clinical benefit: 57.1%
Advanced solid tumors; Schedule A
  Best overall response unable to be determined: 17.4%
  Stable disease rate: 26.1%
Advanced solid tumors; [2]
  Best overall response by investigator: complete response: 0 n (%)
  Best overall response by investigator: partial response: 2 (4.3) ^a n (%)
  Best overall response by investigator: progressive disease: 24 (52.2) n (%)
  Best overall response by investigator: stable disease: 12 (26.1) n (%)
  Best overall response by investigator: unable to determine: 8 (17.4) ^b n (%)
  Median OS (95% CI): 7.52 (4.17–11.99) months
  Median PFS (95% CI): 8.29 (7.14–9.71) weeks
  ORR (95% CI): 2%
Advanced solid tumors; Schedule A, 4.5-mg starting dose (ovarian cancer, NUT carcinoma)
  Patients with a partial response: 2 patients
Advanced solid tumors; Schedule A, all doses
  Patients achieving clinical benefit: 30% and 30.4%
Advanced solid tumors; Schedule B
  Best overall response unable to be determined: 12.5%
  Stable disease rate: 37.5%
Advanced solid tumors; [3]
  Best overall response by investigator: complete response: 0 n (%)
  Best overall response by investigator: partial response: 0 n (%)
  Best overall response by investigator: progressive disease: 4 (50.0) n (%)
  Best overall response by investigator: stable disease: 3 (37.5) n (%)
  Best overall response by investigator: unable to determine: 1 (12.5) ^c n (%)
  Median OS (95% CI): 9.23 (2.79–11.83) months
  Median PFS (95% CI): 8.43 (5.57–40.14) weeks
  ORR (95% CI): 0 (0.0–36.9) %
Advanced solid tumors; Schedule C
  Best overall response unable to be determined: 17.2%
  Stable disease rate: 31.0%
Advanced solid tumors; [4]
  Best overall response by investigator: complete response: 0 n (%)
  Best overall response by investigator: partial response: 0 n (%)
  Best overall response by investigator: progressive disease: 15 (51.7) n (%)
  Best overall response by investigator: stable disease: 9 (31.0) n (%)
  Best overall response by investigator: unable to determine: 5 (17.2) ^d n (%)
  Median OS (95% CI): 5.32 (3.52–11.83) months
  Median PFS (95% CI): 9.00 (7.86–13.29) weeks
  ORR (95% CI): 0 (0.0–11.9) %
Advanced solid tumors; across treatment schedules and doses (n = 26)
  Patients with SD or better: 31.3%
Advanced solid tumors; adenoid cystic carcinoma (4/4)
  Patients with clinical benefit: 100%
Advanced solid tumors; all schedules
  Complete response: No patients experienced a CR
Advanced solid tumors; one patient, ovarian cancer, 4.5 mg schedule A, 3032 U/mL prior to C1D1
  Tumor marker CA 125 level after treatment initiation: decreased and remained stable; also recorded: decreased and stabilized
Advanced solid tumors; one patient, serous papillary ovarian cancer, 4.5 mg schedule A
  Duration of partial response on study treatment: 155 days
Advanced solid tumors; one patient, serous papillary ovarian cancer, 4.5 mg schedule A, PR at day 170
  Reduction in tumor burden: 35%
Advanced solid tumors; schedules A, B, C
  PFS, range depending on treatment schedule: 8.29–9.00 weeks
  Progressive disease as best response, range across treatment schedules: 50.0–52.2%
Advanced solid tumors; uveal melanoma (3/5)
  Patients with clinical benefit: 60%
CCR2 mRNA
  CCR2 mRNA expression change from baseline: transcriptional suppression; also recorded: dose-dependent expression changes
[1]
  Patient-derived xenograft models with antitumor activity: 47%
